Results: ChEMBL document CHEMBL5465560, “Selectivity Literature for EUbOPEN Chemogenomic Library” (2024)

Assays:
[1] = molecular target: Phosphatidylinositol 4,5-bisphosphate 3-kinase catalytic subunit gamma isoform (Homo sapiens) (UniProt P48736); experiment: Selectivity interaction (KinomeScan (DiscoverX)) EUB0000229b PIK3CG; conditions: at 10 µM
[2] = molecular target: Tyrosine-protein kinase Fgr (Homo sapiens) (UniProt P09769); experiment: Selectivity interaction (KinomeScan (DiscoverX)) EUB0000655a FGR; conditions: at 10 µM
Chain of Tyrosine-protein kinase Fgr (Homo sapiens) (P09769 2-529 limits assumed): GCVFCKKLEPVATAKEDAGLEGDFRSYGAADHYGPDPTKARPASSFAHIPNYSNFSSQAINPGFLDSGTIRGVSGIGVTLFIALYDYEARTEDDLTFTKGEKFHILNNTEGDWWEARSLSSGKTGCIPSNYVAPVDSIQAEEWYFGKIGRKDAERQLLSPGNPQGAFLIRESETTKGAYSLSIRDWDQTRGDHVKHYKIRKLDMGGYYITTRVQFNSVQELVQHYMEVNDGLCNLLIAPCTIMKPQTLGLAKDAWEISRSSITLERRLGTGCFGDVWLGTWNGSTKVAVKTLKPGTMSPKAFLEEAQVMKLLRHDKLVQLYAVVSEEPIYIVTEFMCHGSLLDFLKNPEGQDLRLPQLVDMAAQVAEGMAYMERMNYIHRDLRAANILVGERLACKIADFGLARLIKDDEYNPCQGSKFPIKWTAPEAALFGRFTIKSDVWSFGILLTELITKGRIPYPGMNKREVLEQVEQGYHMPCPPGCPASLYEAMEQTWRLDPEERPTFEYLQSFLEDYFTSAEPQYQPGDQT

[3] = molecular target: T1, Testis-specific serine/threonine-protein kinase 1 (Homo sapiens) (UniProt Q9BXA7); experiment: Selectivity interaction (KinomeScan (DiscoverX)) EUB0000655a TSSK1A; conditions: at 10 µM
T1 sequence (whole entry): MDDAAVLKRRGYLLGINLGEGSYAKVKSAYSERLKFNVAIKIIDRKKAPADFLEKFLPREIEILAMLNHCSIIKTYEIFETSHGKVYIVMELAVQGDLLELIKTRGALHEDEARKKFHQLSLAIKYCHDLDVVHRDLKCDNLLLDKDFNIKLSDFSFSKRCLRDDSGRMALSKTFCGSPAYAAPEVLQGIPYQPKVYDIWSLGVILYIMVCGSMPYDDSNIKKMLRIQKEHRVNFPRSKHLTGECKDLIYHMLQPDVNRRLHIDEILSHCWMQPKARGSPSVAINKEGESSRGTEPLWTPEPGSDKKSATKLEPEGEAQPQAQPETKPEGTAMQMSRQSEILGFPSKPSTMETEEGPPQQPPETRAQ

[4] = molecular target: Tyrosine-protein kinase Yes (Homo sapiens) (UniProt P07947); experiment: Selectivity interaction (KinomeScan (DiscoverX)) EUB0001079a YES1; conditions: at 1 µM
Chain of Tyrosine-protein kinase Yes (Homo sapiens) (P07947 2-543 limits assumed): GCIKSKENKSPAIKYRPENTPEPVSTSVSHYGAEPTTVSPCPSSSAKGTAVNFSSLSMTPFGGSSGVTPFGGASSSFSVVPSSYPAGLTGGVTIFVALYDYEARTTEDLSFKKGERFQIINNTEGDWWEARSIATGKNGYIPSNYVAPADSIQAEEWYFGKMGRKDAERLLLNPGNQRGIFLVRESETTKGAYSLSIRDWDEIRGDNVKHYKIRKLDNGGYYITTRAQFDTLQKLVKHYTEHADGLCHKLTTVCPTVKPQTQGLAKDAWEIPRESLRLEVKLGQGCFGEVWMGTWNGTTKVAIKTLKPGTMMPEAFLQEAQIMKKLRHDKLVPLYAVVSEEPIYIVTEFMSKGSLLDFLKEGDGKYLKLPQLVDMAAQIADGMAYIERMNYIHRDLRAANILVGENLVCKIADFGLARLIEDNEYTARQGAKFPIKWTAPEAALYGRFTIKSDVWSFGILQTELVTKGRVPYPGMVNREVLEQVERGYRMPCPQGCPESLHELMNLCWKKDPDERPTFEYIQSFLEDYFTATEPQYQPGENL

[5] = molecular target: T2, Mitogen-activated protein kinase 13 (Homo sapiens) (UniProt O15264); experiment: Selectivity interaction (KinomeScan (DiscoverX)) EUB0000666a MAPK13; conditions: at 10 µM
T2 sequence (whole entry): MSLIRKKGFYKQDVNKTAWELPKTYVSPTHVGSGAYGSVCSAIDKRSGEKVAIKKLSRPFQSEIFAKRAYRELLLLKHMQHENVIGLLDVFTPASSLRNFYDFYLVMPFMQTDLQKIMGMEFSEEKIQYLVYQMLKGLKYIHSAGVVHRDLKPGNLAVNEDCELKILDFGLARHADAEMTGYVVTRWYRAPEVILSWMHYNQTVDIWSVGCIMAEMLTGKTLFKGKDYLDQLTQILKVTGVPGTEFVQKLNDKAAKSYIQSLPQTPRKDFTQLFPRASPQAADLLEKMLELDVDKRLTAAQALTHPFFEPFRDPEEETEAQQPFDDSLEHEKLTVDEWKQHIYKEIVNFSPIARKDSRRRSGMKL

[6] = molecular target: T3, Serine/threonine-protein kinase 36 (Homo sapiens) (UniProt Q9NRP7); experiment: Selectivity interaction (KinomeScan (DiscoverX)) EUB0000666a STK36; conditions: at 10 µM
T3 sequence (whole entry): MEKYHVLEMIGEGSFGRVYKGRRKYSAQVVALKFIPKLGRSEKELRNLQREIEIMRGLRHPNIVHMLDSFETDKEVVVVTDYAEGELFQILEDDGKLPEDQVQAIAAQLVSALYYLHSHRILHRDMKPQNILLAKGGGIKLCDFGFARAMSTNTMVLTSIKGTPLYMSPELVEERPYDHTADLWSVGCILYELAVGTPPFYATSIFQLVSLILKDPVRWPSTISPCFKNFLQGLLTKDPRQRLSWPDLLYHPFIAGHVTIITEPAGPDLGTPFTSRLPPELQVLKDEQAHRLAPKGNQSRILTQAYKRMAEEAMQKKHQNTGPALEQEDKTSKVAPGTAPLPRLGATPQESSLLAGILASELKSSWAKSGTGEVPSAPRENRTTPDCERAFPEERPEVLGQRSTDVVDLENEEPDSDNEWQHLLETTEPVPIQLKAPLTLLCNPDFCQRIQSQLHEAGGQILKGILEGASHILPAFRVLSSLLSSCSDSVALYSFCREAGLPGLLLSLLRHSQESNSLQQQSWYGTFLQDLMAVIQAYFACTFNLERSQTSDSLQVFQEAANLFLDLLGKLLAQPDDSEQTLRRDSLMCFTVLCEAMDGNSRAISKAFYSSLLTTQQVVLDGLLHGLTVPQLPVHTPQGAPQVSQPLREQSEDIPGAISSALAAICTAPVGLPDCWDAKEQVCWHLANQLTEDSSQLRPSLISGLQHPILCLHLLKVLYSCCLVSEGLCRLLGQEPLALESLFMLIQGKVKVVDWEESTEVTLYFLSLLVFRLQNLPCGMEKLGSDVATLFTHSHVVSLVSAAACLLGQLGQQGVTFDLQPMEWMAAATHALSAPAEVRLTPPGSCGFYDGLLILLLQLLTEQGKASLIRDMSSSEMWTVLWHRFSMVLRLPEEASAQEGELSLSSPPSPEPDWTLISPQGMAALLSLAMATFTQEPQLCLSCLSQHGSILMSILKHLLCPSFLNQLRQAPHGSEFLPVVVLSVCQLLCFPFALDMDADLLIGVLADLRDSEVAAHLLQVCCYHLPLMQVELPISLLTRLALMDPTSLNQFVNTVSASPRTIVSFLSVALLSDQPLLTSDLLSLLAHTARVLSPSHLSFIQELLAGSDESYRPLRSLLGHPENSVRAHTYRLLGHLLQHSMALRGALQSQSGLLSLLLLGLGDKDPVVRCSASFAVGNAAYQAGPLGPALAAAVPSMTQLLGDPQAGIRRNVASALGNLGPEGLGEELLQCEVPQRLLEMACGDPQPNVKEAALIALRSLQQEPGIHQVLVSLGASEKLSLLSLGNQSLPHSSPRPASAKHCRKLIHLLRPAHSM

[7] = molecular target: Cyclin-dependent kinase 8 (Homo sapiens, UniProt P49336); experiment: Selectivity interaction (KinomeScan (DiscoverX)) EUB0000607a CDK8; conditions: at 10 µM
Chain of Cyclin-dependent kinase 8 (P49336 whole entry): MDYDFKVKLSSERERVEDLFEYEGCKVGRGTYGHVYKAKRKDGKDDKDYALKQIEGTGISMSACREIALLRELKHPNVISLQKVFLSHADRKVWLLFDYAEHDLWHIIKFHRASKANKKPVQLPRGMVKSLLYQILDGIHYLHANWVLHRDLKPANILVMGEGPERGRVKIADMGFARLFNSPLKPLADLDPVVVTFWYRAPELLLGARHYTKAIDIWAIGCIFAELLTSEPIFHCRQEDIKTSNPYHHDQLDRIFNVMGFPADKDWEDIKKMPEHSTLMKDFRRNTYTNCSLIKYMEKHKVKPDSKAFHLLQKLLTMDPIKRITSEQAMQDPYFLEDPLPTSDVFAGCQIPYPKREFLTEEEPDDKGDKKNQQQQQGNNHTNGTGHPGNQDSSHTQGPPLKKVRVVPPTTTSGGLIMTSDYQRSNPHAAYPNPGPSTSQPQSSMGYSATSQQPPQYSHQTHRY

[8] = molecular target: Ribosomal protein S6 kinase alpha-6 (Homo sapiens, UniProt Q9UK32); experiment: Selectivity interaction (KinomeScan (DiscoverX)) EUB0000595a RPS6KA6; conditions: at 10 µM
Chain of Ribosomal protein S6 kinase alpha-6 (Q9UK32 whole entry): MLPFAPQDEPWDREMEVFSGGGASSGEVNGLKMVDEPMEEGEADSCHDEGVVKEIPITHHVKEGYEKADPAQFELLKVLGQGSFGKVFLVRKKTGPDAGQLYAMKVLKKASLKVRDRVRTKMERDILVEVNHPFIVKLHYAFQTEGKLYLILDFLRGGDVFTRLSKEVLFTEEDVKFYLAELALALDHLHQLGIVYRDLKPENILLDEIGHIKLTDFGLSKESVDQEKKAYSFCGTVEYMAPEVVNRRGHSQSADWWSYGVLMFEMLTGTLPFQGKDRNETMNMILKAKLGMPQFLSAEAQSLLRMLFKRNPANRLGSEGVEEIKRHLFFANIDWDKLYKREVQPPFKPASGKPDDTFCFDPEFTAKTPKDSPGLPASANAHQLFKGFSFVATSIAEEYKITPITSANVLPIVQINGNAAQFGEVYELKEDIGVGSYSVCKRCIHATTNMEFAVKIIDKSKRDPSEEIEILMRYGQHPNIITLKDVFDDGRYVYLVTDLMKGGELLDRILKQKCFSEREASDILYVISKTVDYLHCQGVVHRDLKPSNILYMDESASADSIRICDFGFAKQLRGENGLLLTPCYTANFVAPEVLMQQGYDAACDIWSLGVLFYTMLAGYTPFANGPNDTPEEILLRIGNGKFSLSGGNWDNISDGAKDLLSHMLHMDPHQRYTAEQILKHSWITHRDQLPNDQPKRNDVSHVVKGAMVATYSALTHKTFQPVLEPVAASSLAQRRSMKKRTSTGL

[9] = molecular target: Calcium/calmodulin-dependent protein kinase type II subunit gamma (Homo sapiens) (UniProt Q13555); experiment: Selectivity interaction (KinomeScan (DiscoverX)) EUB0000045b CAMK2G
Chain of Calcium/calmodulin-dependent protein kinase type II subunit gamma (Homo sapiens) (Q13555 whole entry): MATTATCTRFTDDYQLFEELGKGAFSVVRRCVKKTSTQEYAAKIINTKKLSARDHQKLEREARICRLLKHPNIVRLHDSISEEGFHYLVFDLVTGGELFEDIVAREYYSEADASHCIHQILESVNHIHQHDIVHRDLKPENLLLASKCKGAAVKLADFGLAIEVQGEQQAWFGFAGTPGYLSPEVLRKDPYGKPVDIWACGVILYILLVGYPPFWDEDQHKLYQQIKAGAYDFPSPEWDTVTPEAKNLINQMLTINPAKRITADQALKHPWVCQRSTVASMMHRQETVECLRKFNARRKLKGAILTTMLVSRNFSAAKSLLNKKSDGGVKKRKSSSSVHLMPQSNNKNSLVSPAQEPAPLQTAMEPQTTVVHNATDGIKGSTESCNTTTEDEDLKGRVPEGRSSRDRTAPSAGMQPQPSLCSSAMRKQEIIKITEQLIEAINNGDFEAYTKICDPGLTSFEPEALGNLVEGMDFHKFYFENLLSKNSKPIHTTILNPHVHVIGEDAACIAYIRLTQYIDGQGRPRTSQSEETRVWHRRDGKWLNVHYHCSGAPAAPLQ

[10] = molecular target: TGF-beta receptor type-2 (Homo sapiens) (UniProt P37173); experiment: Selectivity interaction (KinomeScan (DiscoverX)) EUB0000045b TGFBR2
Chain of TGF-beta receptor type-2 (Homo sapiens) (P37173 whole entry): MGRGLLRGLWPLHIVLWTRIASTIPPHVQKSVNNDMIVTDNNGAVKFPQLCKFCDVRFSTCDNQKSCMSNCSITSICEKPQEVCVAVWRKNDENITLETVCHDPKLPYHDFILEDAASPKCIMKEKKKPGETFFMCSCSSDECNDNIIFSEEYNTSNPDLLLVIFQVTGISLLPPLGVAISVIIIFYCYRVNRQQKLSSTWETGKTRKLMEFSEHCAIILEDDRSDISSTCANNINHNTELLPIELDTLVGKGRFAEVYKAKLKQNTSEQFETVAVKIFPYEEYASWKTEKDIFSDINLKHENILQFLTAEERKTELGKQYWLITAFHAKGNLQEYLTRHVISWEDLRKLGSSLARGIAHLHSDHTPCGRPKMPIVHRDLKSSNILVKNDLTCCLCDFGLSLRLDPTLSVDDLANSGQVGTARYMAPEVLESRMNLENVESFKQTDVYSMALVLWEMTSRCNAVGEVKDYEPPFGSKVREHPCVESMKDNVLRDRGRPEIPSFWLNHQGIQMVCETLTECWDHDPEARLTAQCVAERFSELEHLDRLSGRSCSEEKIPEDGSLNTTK

Chain of Phosphatidylinositol 4,5-bisphosphate 3-kinase catalytic subunit gamma isoform (Homo sapiens) (P48736 whole entry, looked up, canonical isoform): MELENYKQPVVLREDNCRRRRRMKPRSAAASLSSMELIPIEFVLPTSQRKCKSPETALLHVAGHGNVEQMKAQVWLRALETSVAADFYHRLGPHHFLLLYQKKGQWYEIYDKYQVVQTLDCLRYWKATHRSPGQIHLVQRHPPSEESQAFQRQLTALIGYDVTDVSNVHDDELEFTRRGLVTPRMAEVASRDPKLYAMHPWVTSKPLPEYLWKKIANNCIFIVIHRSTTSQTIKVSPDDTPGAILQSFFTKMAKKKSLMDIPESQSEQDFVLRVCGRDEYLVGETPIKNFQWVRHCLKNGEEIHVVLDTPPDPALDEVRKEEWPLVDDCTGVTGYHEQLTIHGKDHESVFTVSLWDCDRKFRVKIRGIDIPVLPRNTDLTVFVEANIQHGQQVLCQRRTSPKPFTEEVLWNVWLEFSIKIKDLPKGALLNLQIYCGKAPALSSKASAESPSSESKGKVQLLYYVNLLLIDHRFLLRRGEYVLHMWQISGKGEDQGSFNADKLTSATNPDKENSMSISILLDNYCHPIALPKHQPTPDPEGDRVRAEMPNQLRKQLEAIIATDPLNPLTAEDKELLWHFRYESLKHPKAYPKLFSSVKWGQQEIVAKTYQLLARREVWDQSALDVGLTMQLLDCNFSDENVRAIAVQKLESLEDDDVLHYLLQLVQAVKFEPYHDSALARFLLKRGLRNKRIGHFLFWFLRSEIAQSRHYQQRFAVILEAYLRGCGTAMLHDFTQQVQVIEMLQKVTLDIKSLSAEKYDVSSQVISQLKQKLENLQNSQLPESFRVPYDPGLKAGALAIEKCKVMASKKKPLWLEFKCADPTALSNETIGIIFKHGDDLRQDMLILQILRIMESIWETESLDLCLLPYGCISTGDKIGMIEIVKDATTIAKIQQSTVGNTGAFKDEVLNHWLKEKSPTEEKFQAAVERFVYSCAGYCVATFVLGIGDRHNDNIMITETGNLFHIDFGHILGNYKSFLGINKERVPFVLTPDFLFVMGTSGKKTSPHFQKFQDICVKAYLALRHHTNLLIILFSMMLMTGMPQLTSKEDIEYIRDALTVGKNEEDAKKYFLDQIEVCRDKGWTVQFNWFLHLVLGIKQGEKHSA

How did the % binding [1] turn out when `COc1cc(N(C)c2ccnc3ccc(C(F)(F)F)cc23)cc(OC)c1OC` was run?
The % binding was 99%.

How did the % of control [2] turn out when `CN(C)CCOc1ccc(-c2nc(-c3ccncc3)c(-c3ccc4c(c3)CC/C4=N\O)[nH]2)cc1` was run?
The % of control was 87%.

And the % of control [3]?
Its % of control is 86%.

With `Nc1cnc(N2CCc3cc(S(=O)(=O)Nc4c(F)cc(Cl)cc4F)cc(N4CCCC4=O)c32)nc1` [TP-020n] as the compound, how does the % of control [4] read?
The % of control was 100%.

Which % of control [5] does the source give for `O=C(NOC[C@H](O)CO)c1ccc(F)c(F)c1Nc1ccc(I)cc1F` here?
Its % of control is 6.1%.

What about the % of control [6] of the same compound?
Its % of control is 74%.

How did the % of control [7] turn out when `CNC(=O)Nc1ccc(-c2nc(N3CC4CCC(C3)O4)c3cnn(C4CCC5(CC4)OCCO5)c3n2)cc1` was run?
The % of control was 100%.

`COCC(=O)NC/C=C/c1ccc2ncnc(Nc3ccc(Oc4ccc(C)nc4)c(C)c3)c2c1` [CP-724714] was tested. Which % of control [8] did it give?
The % of control was 88%.

`C=CC(=O)Nc1cc(-n2c(=O)ccc3cnc4ccc(-c5ccc(NS(C)(=O)=O)cc5)cc4c32)ccc1C` was tested. Which % of control ([9]; at 1 µM) did it give?
Its % of control is 100%.

And the % of control ([9]; at 10 µM)?
The % of control was 96%.

And the % of control ([10]; at 1 µM)?
The % of control was 100%.

What about the % of control ([10]; at 10 µM) of the same compound?
Its % of control is 100%.
